Columns and labels:
Format in all cases: in vivo
[1] = test system: Sesbania cannabina; assay: Antagonistic effect with Artemisia annua seed extract on germination and seedling growth; details: A. annua seed extract (0.65 g seeds/100 ml) alone or mixed 1:1 with 0.01 μm compound, control = 100%
Procedure: (§1) On the other hand, it is evident from Exp. 1-4 that phyllocladane diterpenenoids have produced germination and growth promoting activities on various plant species. To find out the combined effect of A. annua extract and phyllocladane diterpenoides on the germination and seedling growth of different plant species, 1:1 ratio of these compounds and A.annua extract were tested in the present experiment. For this, Hibiscus sabdariffa and Sesbania cannabina seeds were germinated in A.annua seed extract and solutions prepared by mixing this extract with 0.01 μm calliterpenone and calliterpenone mono-acetate respectively (Table 7). For the preparation of A.annua extract, 1.3 g seeds were soaked in 100 ml of distilled water for 24 hrs for testing on H. sabdariffa. Since, at this concentration, seeds of this species have shown 69% mortality which may be taken as good indicator. This effect was also recorded in S.cannabina. Since, in this case, seeds were almost half in weight as compared to the seeds of H. sabdariffa, accordingly, 0.65 g A. annua seeds were soaked in 100 ml of distilled water for 24 hrs to produce identical constraints in S. cannabina. For control, seeds were germinated in distilled water and all the observations were compared with it. […] Therefore, calliterpenone and its derivatives can be used to nullify the effects of other growth retardants/allelochemicals in the fields for their reclamation.

[2] = test system: Hibiscus sabdariffa; assay: as above; details: A. annua seed extract (1.3 g seeds/100 ml) alone or mixed 1:1 with 0.01 μm compound, control = 100%
Procedure: as §1

[3] = test system: Hordeum vulgare; assay: Seed germination and seedling shoot/root growth test in petridishes; details: control = 100%
Procedure: (§2) As noted above the activity of phyllocladane diterpenoids used in the practice of this invention was observed when these compounds were tested for their effects on seed germination, root and shoot growth of certain plant species and their antagonistic effect on plant growth retardants by the method described by Bagchi G. D. et al Phytochemistry, 45(6)1131-1133, 1997.
(§3) Plant growth promoting activity of calliterpenone, calliterpenone monoacetate, and calliterpenone di-acetate was examined at 0.1, 0.01 and 0.001 μM concentrations. The tests were conducted against seeds of two monocotyledonous (Hordeum vulgare and Triticum aestivum) and two dicotyledonous plants (Vigna radiata and Trigonella foenum-graecum). Control seeds were germinated in distilled water and all the observations were compared with […]. The root and shoot growth of all the plant species were affected by the phyllocladane diterpenoids, although the extent of effect varied considerably in the plant species with the chemicals and their concentrations. […] Details of the procedure adopted and results obtained are discussed in the various examples.
(§4) 100 ml stalk solutions of 0.1 μM concentration were prepared by dissolving required amounts of various test compounds (depending upon their molecular weights) in minimum amount of ethanol or acetone and adding distilled water. From this stalk solution, 0.01 μM and 0.001 μM concentrations were prepared. Calliterpenone and calliterpenone di acetate was dissolved in 2.0 ml absolute ethanol (Merc), while; calliterpenone monoacetate, isopropylideno calliterpenone and trihydroxy calliterpenone were dissolved in 2.0 ml spectral grade acetone (Ranbaxy). The respective control test solutions of distilled water of each concentration also contained equal amount of absolute ethanol or acetone. For an assay, 10 seeds were placed on Whatman filter paper (moistened with 5.0 ml of test solution in a 9.0 cm diameter petridish (in triplicate). The pteridishes were incubated for 9 days in a germinator, maintained at 25.0±1.0° C. with 90% humidity and 4 hr light/day. At the end of incubation, observations were recorded on the seedlings in terms of germination, shoot and root growth. The data on the length of shoot and root of seedlings and number of seeds germinated in different concentrations of compounds were compared with the control, which was taken as 100%. The data thus obtained were presented in Table-1.
(§5) Root growth of seedlings was measured in the similar way as shoot growth from the experiment as described in Example 1.
(§6) Effect of test compounds on germination was observed from the same experiment as described in Example 1.

[4] = test system: Triticum aestivum; assay: as above; details: control = 100%
Procedure: as §2, §3, §4, §5, §6

[5] = test system: Trigonella foenum-graecum; assay: as above; details: for Percent (%) germination of seeds in relation to control on 9th day after sowing / Percent (%) root growth of seedlings in relation to control on 9th day after sowing / Percent (%) shoot growth of seedlings in relation to control on 9th day after sowing: Trigonella foenum graecum, control = 100%
Procedure: as §2, §3, §4, §5, §6

[6] = test system: Vigna radiata; assay: as above; details: Vigna radiata, control = 100%
Procedure: as §2, §3, §4, §5, §6

[7] = test system: Sesbania cannabina; assay: Seed germination and seedling growth, comparison with GA3 (Example 4)
Procedure: as §4
(§7) Effect of calliterpenone and its derivatives on seed germination and seedling growth in Hibiscus sabdariffa and Sesbania cannabina were measured in the similar way as these were measured in Example-1.

[8] = test system: Hibiscus sabdariffa; assay: as above
Procedure: as §4, §7

## CC1(C)C(=O)CC[C@@]2(C)[C@H]1CC[C@@]13C[C@H](CC[C@@H]12)[C@@](O)(CO)C3 [Calliterpenone, 16α, 17 dihydroxy phyllocladan-3 one]
[1]
  Percent (%) germination in relation to control on the 9th day after sowing: no improvement in seed germination
  Percent (%) seedling growth, Root, in relation to control on the 9th day after sowing: 225%
  Percent (%) seedling growth, Stem, in relation to control on the 9th day after sowing: 144%
[2]
  Percent (%) germination in relation to control on the 9th day after sowing: nullified the germination retarding effect
  Percent (%) seedling growth, Root, in relation to control on the 9th day after sowing: 150%
  Percent (%) seedling growth, Stem, in relation to control on the 9th day after sowing: 130%
[3]; 0.001 μM
  Percent (%) germination of seeds in relation to control on 9th day after sowing: 100%
  Percent (%) root growth of seedlings in relation to control on 9th day after sowing: 116%
  Percent (%) shoot growth of seedlings in relation to control on 9th day after sowing: 118%
[3]; 0.01 μM
  Percent (%) germination of seeds in relation to control on 9th day after sowing: 100%
  Percent (%) root growth of seedlings in relation to control on 9th day after sowing: 116%
  Percent (%) shoot growth of seedlings in relation to control on 9th day after sowing: 103%
[3]; 0.1 μM
  Percent (%) germination of seeds in relation to control on 9th day after sowing: 100%
  Percent (%) root growth of seedlings in relation to control on 9th day after sowing: 82%
  Percent (%) shoot growth of seedlings in relation to control on 9th day after sowing: 102%
[4]; 0.001 μM
  Percent (%) germination of seeds in relation to control on 9th day after sowing: 100%
  Percent (%) root growth of seedlings in relation to control on 9th day after sowing: 136%
  Percent (%) shoot growth of seedlings in relation to control on 9th day after sowing: 105%
[4]; 0.01 μM
  Percent (%) germination of seeds in relation to control on 9th day after sowing: 100%
  Percent (%) root growth of seedlings in relation to control on 9th day after sowing: 80%
  Percent (%) shoot growth of seedlings in relation to control on 9th day after sowing: 100%
[4]; 0.1 μM
  Percent (%) germination of seeds in relation to control on 9th day after sowing: 100%
  Percent (%) root growth of seedlings in relation to control on 9th day after sowing: 80%
  Percent (%) shoot growth of seedlings in relation to control on 9th day after sowing: 95%
[5]; 0.001 μM
  Percent (%) germination of seeds in relation to control on 9th day after sowing: 113%
  Percent (%) root growth of seedlings in relation to control on 9th day after sowing: 141%
  Percent (%) shoot growth of seedlings in relation to control on 9th day after sowing: 121%
[5]; 0.01 μM
  Percent (%) germination of seeds in relation to control on 9th day after sowing: 125%
  Percent (%) root growth of seedlings in relation to control on 9th day after sowing: 164%
  Percent (%) shoot growth of seedlings in relation to control on 9th day after sowing: 130%
[5]; 0.1 μM
  Percent (%) germination of seeds in relation to control on 9th day after sowing: 113%
  Percent (%) root growth of seedlings in relation to control on 9th day after sowing: 150%
  Percent (%) shoot growth of seedlings in relation to control on 9th day after sowing: 121%
[5]; Trigonella foenum-graceum, concentration not specified
  Seed germination as compared to 100% in control: 113%
[6]; 0.001 μM
  Percent (%) germination of seeds in relation to control on 9th day after sowing: 250%
  Percent (%) root growth of seedlings in relation to control on 9th day after sowing: 87%
  Percent (%) shoot growth of seedlings in relation to control on 9th day after sowing: 121%
[6]; 0.01 μM
  Percent (%) germination of seeds in relation to control on 9th day after sowing: 150%
  Percent (%) root growth of seedlings in relation to control on 9th day after sowing: 138%
  Percent (%) shoot growth of seedlings in relation to control on 9th day after sowing: 134%
[6]; 0.1 μM
  Percent (%) germination of seeds in relation to control on 9th day after sowing: 150%
  Percent (%) root growth of seedlings in relation to control on 9th day after sowing: 76%
  Percent (%) shoot growth of seedlings in relation to control on 9th day after sowing: 128%
[7]; 0.001 μM
  Germination as compared to respective control: 150%
  Germination compared with GA3: 150%
  Root growth as compared to respective control: 119%
  Seed Ger.: 3
  Shoot growth as compared to GA3 (100%): 104%
  Shoot growth as compared to respective control: 120%
  Root Growth (mm) 3rd Day: 30.0 mm
  Shoot growth 3rd Day: 17.0
  Root Growth (mm) 6th Day: 33.6 mm
  Shoot growth 6th Day: 86.2
[7]; 0.001 μM, 9th day
  Root Growth (mm) 9th Day: 43.4 mm
  Root growth as compared to GA3 taken as 100%: 109%
  Shoot growth 9th Day: 108.2
[7]; 0.01 μM
  Seed Ger.: 3
  Root Growth (mm) 3rd Day: 14.5 mm
  Shoot growth 3rd Day: 14.2
  Root Growth (mm) 6th Day: 21.0 mm
  Shoot growth 6th Day: 48.8
[7]; 0.01 μM, 9th day
  Root Growth (mm) 9th Day: 34.8 mm
  Shoot growth 9th Day: 67.3
[7]; 0.1 μM
  Seed Ger.: 4
  Root Growth (mm) 3rd Day: 7.3 mm
  Shoot growth 3rd Day: 10.3
  Root Growth (mm) 6th Day: 16.0 mm
  Shoot growth 6th Day: 39.3
[7]; 0.1 μM, 9th day
  Root Growth (mm) 9th Day: 24.8 mm
  Shoot growth 9th Day: 61.5
[8]; 0.001 μM
  Germination as compared to respective control: 133%
  Germination compared with GA3: 133%
  Root growth as compared to respective control: 157%
  Seed Ger.: 4
  Shoot growth as compared to GA3 (100%): 110%
  Shoot growth as compared to respective control: 182%
  Root Growth (mm) 3rd Day: 12.6 mm
  Shoot growth 3rd Day: 27.1
  Root Growth (mm) 6th Day: 28.6 mm
  Shoot growth 6th Day: 61.0
[8]; 0.001 μM, 9th day
  Root Growth (mm) 9th Day: 33.4 mm
  Root growth as compared to GA3 taken as 100%: 134%
  Shoot growth 9th Day: 94.6
[8]; 0.01 μM
  Seed Ger.: 2
  Root Growth (mm) 3rd Day: 17.0 mm
  Shoot growth 3rd Day: 39.8
  Root Growth (mm) 6th Day: 19.2 mm
  Shoot growth 6th Day: 78.0
[8]; 0.01 μM, 9th day
  Root Growth (mm) 9th Day: 25.8 mm
  Shoot growth 9th Day: 85.0
[8]; 0.1 μM
  Seed Ger.: 2
  Root Growth (mm) 3rd Day: 14.0 mm
  Shoot growth 3rd Day: 13.6
  Root Growth (mm) 6th Day: 21.5 mm
  Shoot growth 6th Day: 52.5
[8]; 0.1 μM, 9th day
  Root Growth (mm) 9th Day: 23.0 mm
  Shoot growth 9th Day: 72.5

From patent US6673749B1, “Use of phyllocladane diterpenoids for plant growth promotion and alleviation of growth retardant allelochemicals, and method therefor” (Council of Scientific and Industrial Research, priority 2002, dated 2004)
